The values that follow come from patent US20110046071A1 (TEL HASHOMER MEDICAL RESEARCH INFRASTRUCTURE AND SERVICES …, priority 2008, published 2011).

The conditions of series [1]: cited from earlier work.
Series [2] has as its system cAMP levels in MCF-7 cells. Nature of the series: cAMP radioimmunoassay. The series is classed as cell-based. The following applies: 5 minutes; for cAMP accumulation / production: exendin-4 5 nM, GLP-1 5 nM, exendin (9-39) 100 nM, 2′5′-dideoxy adenosine 30 μM (60 minutes preincubation). Here is the method: cAMP measurements: For cAMP measurement, a radioimmunoassay was carried out as follows: cells and 100 μl media were snap frozen in liquid nitrogen, thawed and diluted in buffer acetate. […] Bound cAMP was precipitated and counted in a γ-counter, and concentration determined using a standard curve and positive controls.
In general terms: Cyclic AMP is a second messenger, typically raised through Gs and lowered through Gi signalling.

Series [3] relates to MCF-7 cells. The note with it: human, 72 h, 50 nM. Here is the method: Doxorubicin is a commonly used chemotherapy against breast cancer.
Media and treatments were changed once after 48 hrs. After 72 hrs of incubation at 37° C., 5% CO2, the cells were cultured for four hours with 10% MIT reagent (5 mg/ml; Sigma-Aldrich). The medium was aspirated, and the cells were dissolved by dimethyl sulfoxide (DMSO). Absorbance of the formazan product was measured by an enzyme-linked immunosorbent assay reader.

The conditions of series [4]: in vivo; cited from earlier work.
Series [5] deals with MCF-7 cells. Nature of the series: cells. The class given is cell-based. The following applies: Homo sapiens, MCF7, read-out: inhibition of cell viability. An excerpt:
Human embryonic kidney HEK-293 and primary liver cells were used as controls.
Medium was replaced once after 48 hrs.

Series [6] deals with CREB, p38, ERK1/2, AKT, AMPK in MCF-7 cells. Description: Western blot of signaling pathways (CREB, p38, ERK1/2, AKT, AMPK, ACC). The note with it: for AMPK and ACC phosphorylation (AMP kinase activity): comparable to the AMPK activator AICAR. The class given is cell-based. Here is the method:
50 μg protein extracts were loaded on 10% polyacrylamide gels, separated electrophoretically and blotted from the gel onto nitrocellulose membrane (Schleicher & Schuell Bioscience GmbH, Dassel, Del.). The membranes were then immunoblotted with the indicated antibodies. Band intensities were quantified using ImageJ software. Colony assays: 200 cells/well were plated on 12-well plate. […] Medium was replaced twice a week and at day 14, the cells were stained using crystal violet. Quantification of the results was performed using ImageJ.
(In western blotting, separated proteins are transferred to a membrane and probed.)

Entries after “also recorded” stand apart in the source; their conditions may differ.

With `N[C@@H](CC(=O)N1CCn2c(nnc2C(F)(F)F)C1)Cc1cc(F)c(F)cc1F` [Sitagliptin, (2R)-4-oxo-4-[3-(trifluoromethyl)-5,6-dihydro[1,2,4]triazolo[4,3-a]pyrazin-7(8H)-yl]-1-(2,4,5-trifluorophenyl)butan-2-amine], the “eliminated without being metabolized” value in series [1] (human subjects, via the kidney) is on record as 74%. Further, in series [1] (in vivo), the half life was 8 to 12 h.

Regarding `C[C@H]1O[C@@H](n2cnc3c(N)ncnc32)C[C@@H]1O` [ddA, 2′5′ dideoxy-adenosine], in series [2], the “cAMP accumulation / production” value is “inhibited”.

As to `COc1cccc2c1C(=O)c1c(O)c3c(c(O)c1C2=O)C[C@@](O)(C(=O)CO)C[C@@H]3O[C@H]1C[C@H](N)[C@H](O)[C@H](C)O1` [doxorubicin], the reduction of viability in the series on MCF-7 cells [3] was 20%. Moreover, the “crossing of the blood-brain barrier” value in series [4] is reported as “does not cross the blood-brain barrier”.

For the compound `C=C[C@@]1(C)CC(=O)[C@]2(O)[C@@]3(C)[C@@H](O)CCC(C)(C)[C@@H]3[C@H](O)[C@H](OC(C)=O)[C@@]2(C)O1` [forskolin], the cytotoxicity at 1 µM in the series on MCF-7 cells [5] was 60%. Moreover, the “elevation of cAMP levels” value in series [2] (forskolin 1 μM) turned out to be 6 fold.

On to Glucagon-like peptide 1 [GLP-1], for which the “cAMP accumulation / production” value in series [2] is “elevated; also recorded: similar”. Besides, in series [6], the “p38 MAPK activation / phosphorylation” value is on record as “induced; also recorded: activated”; the “AMPK and ACC phosphorylation (AMP kinase activity)” value is “phosphorylated”. Moreover, in series [6] (15 minutes), the CREB phosphorylation entry was “induced; also recorded: CREB phosphorylation”; the “ERK1/2 and AKT pathways” value was “Neither GLP-1 nor exendin-4 affected; also recorded: neither ERK1/2 nor AKT were affected”. Also, in series [4], the “crossing of the blood-brain barrier” value is on record as “able to cross the blood-brain barrier”.

Consider exendin(9-39), for which the “cAMP accumulation / production” value in series [2] is “increased cAMP accumulation similarly to exendin-4 and GLP-1”. Further, in series [6], the “p38 MAPK activation / phosphorylation” value was “enhanced”; the “AMPK and ACC phosphorylation (AMP kinase activity)” value is recorded as “phosphorylated”. For the same compound, the CREB phosphorylation result in series [6] (15 minutes) is listed as “enhanced”.
